Columns and labels:
60 cancer cell lines = assay: NCI 60-cell one dose screen, whole panel; format: cell-based, human; conditions: 10^−5M
Procedure: NSC745885 was studied as a prototype for anti-proliferative activity against human cancer cell lines in NCI Drug Screen Program (Table 1, below). NSC745885 was evaluated in the full panel of human tumor cell lines derived from nine cancer cell types (leukemia, non-small cell lung cancer, colon cancer, CNS cancer, prostate cancer, melanoma, ovarian cancer, renal cancer and breast cancer). Each subpanel uses several cell lines and dose-response curves were drawn against the decadic logarithm (log 10) of the corresponding drug concentrations for each cell line by the subpanel group. They were also evaluated in the 60 cell line panel and anticancer assay was performed in accordance with the protocol of developmental therapeutics program (one dose mean graph). Results for each compound were reported as the proliferation percentage of the treated cells with that of the untreated control cells being 100. For each of these parameters the averaged values of mean graph midpoint (MG_MID) were calculated.

[1] = tested on: p53-dependent reporter (pG13-LUC); assay: p53-dependent reporter (pG13-LUC) luciferase assay; format: cell-based, human
Procedure: HeLa and HeLa/shp53 cells were grown in DMEM supplemented with 10% charcoal/dextran-treated fetal bovine serum. Cells in a 24-well plate were transfected with jetPEI (PolyPlus-transfection, France) according to the manufacturer's protocol; total DNA was adjusted to 1.0 μg by the addition of empty vector DNA. Luciferase assays were performed using the Promega Luciferase Assay kit, and the measurement was expressed numerically as relative light units (RLU). Luciferase activities were presented as means and standard deviation of two transfected sets. […] Instead, the reproducibility of the observed effects on luciferase activity was determined in multiple independent transfection experiments.
HeLa cells infected with human papillomavirus and expressing the E6 oncoprotein, which maintains endogenous wild-type p53 at a very low concentration, are used as a model system for studying human cervical tumorigenesis. In order for us to confirm the effects of DXR and NSC745885 on endogenous p53, HeLa cells were transiently transfected with a p53-dependent reporter (pG13-LUC) (FIG. 7A) and a p21 promoter reporter (p21-LUC) (FIG. 7B), along with an expression vector for a well-known p53 activator (Zac1).

Structure (SMILES): O=C1c2ccccc2C(=O)c2c1ccc1nsnc21 [NSC745885, anthra[2,1-c][1,2,5]thiadiazole-6,11-dione]
- proliferation percentage, Delta (60 cancer cell lines; delta of the one dose mean graph): 102.68%
- proliferation percentage, Mean (60 cancer cell lines; mean over the cell lines): 2.68%
- proliferation percentage, Range (60 cancer cell lines; range over the cell lines): 230.09%
- Zac1-induced p53-dependent reporter activity ([1]; HeLa cells co-transfected with Zac1 expression vector): inhibited Zac1-induced activity
- pG13-LUC reporter activity ([1]; HeLa cells transiently transfected, without Zac1): enhanced pG13-LUC reporter activity in a concentration-dependent manner

— US8772321B2, “Heteroannelated anthraquinone derivatives for inhibiting cancers” (National Defense Medical Center, priority 2008, dated 2014)
